Values quoted from earlier work in US20010043957A1, “Lypolytic composition” (priority 2000, published 2001).

Tests used:
[1] = group of animals
[2] = per day, most healthy people, caffeine and related methylxanthines

Row | SMILES | loss in body weight [1] | amount safely consumed without adverse reactions [2] | loss in body fat [1] [%]
1 | Cn1c(=O)c2c(ncn2C)n(C)c1=O [caffeine] | not significant loss in body weight | up to 200 mg | 
2 | CN[C@@H](C)[C@H](O)c1ccccc1 [ephedrine] | 14% |  | 42
